# From patent US20250092065A1, “2-(INDAZOL-5-YL)-6-(PIPERIDIN-4-YL)-1,7-NAPHTHYRIDINE DERIVATIVES AND RELATED COMPOUNDS AS MODULATORS FOR SPLICING NUCLEIC ACIDS AND FOR THE TREATMENT OF PROLIFERATIVE DISEASES” (REMIX THERAPEUTICS INC., priority 2022, published 2025)
# Structures can show the parent of a compound that is named as a salt.
# Experiments:
# Target C = assay: RT-qPCR canonical junction panel assay, Target C mRNA; type: cell-based; details: Table 4, read-out: Target C IC50 (decrease in CJ mRNA levels)
# How it was run: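 A673 or K562 cells treated with compound; CJ mRNA quantified by junction-spanning RT-qPCR probe after cDNA synthesis, normalised to GAPDH, GUSB or PPIA and DMSO (2^−ΔΔCt), scaled to set ΔCt assay window; IC50 from 4-parameter fit of CJ decrease.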
# MYB = assay: HiBiT protein abundance assay, MYB (K562 HiBiT knock-in); type: cell-based, human; details: HiBiT knock-in K562 cells, 24 hours, top dose 10 μM
# How it was run: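 Luminescence readout: Nano-Glo HiBiT lytic detection after 24 h compound exposure of K562 HiBiT knock-in cells, 10000 cells/well. Dosing 10-pt, 3-fold, top 10 μM final. % response vs untreated parental K562 and DMSO controls; 4PL fit, IC50 = concentration giving 50% protein abundance.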
Structure (SMILES),IC50 (Target C),IC50 (MYB)
"Cc1nc(-c2cc3cn(C)nc3cc2O)nc2ccc(N3C[C@H](C)N[C@@H](C)C3)cc12 (single isomer, unassigned) [Compound 806]",> 10000 nM,< 100 nM
Cn1cc2cc(-c3cc4ccc(C5CCNCC5)nc4cn3)c(O)cc2n1 [Compound 104],1000 to 10000 nM,1000 to 10000 nM
Cn1cc2cc(-c3ccc4nc(N5CC[C@H](NC6CCC6)C5)ccc4n3)c(O)cc2n1 [Compound 156],100 to 1000 nM,< 100 nM
CC(C)N[C@H]1CCN(c2ccc3nc(-c4cc5cn(C)nc5cc4O)ccc3n2)C1 [Compound 171],100 to 1000 nM,< 100 nM
Cc1cn2nc(-c3ccc4nc(N5CCC(NC(C)(C)C)C5)ccc4n3)cc(C)c2n1 (stereo not drawn) [Compound 186],< 100 nM,100 to 1000 nM
Cn1cc2cc(-c3ccc4nc(N5CC[C@H](NCC6CC6)C5)ccc4n3)c(O)cc2n1 [Compound 194],100 to 1000 nM,< 100 nM
"CN(C)C1CCN(c2ccc3nc(-c4cc5cn(C)nc5c(F)c4O)ncc3c2)CC1 [Compound 757, 5-{6-[4-(dimethylamino)piperidin-1-yl]quinazolin-2-yl}-7-fluoro-2-methylindazol-6-ol]",1000 to 10000 nM,< 100 nM
"Cc1cn2cc(-c3ncc4cc(N5C[C@@H](C)N[C@@H](C)C5)ccc4n3)cc(F)c2n1 [Compound 773, 6-[(3R,5S)-3,5-dimethylpiperazin-1-yl]-2-{8-fluoro-2-methylimidazo[1,2-a]pyridin-6-yl}quinazoline]",1000 to 10000 nM,< 100 nM
"Cc1cn2cc(-c3nc(C(=O)NC4CCC4)c4cc(N5C[C@@H](C)N[C@@H](C)C5)ccc4n3)cc(F)c2n1 [Compound 779, N-cyclobutyl-6-[(3R,5S)-3,5-dimethylpiperazin-1-yl]-2-{8-fluoro-2-methylimidazo[1,2-a]pyridin-6-yl}quinazoline-4-carboxamide]",1000 to 10000 nM,< 100 nM
Cc1c(O)c(-c2nc(C(N)=O)c3cc(N4C[C@H](C)N[C@@H](C)C4)ccc3n2)cc2cn(C)nc12 [Compound 796],> 10000 nM,< 100 nM
C[C@H]1CN(c2ccc3nc(-c4cc5cn(C)nc5cc4O)nc(C(N)=O)c3c2)C[C@H](C)N1 [Compound 797],> 10000 nM,< 100 nM
"Cc1cn2cc(-c3ncc4cc(N5C[C@H](C)N[C@@H](C)C5)ccc4n3)cc(F)c2n1 [Compound 803, 6-[(3S,5S)-3,5-dimethylpiperazin-1-yl]-2-{8-fluoro-2-methylimidazo[1,2-a]pyridin-6-yl}quinazoline]",100 to 1000 nM,< 100 nM

# Results, then the compound that gave them:
IC50 (Target C),IC50 (MYB),Structure (SMILES)
100 to 1000 nM,< 100 nM,"C[C@H]1CN(c2cc(F)c3nc(-c4cc(F)c5nn(C)cc5c4)ccc3c2)C[C@H](C)N1 (single isomer, unassigned) [Compound 760]"
100 to 1000 nM,< 100 nM,"C[C@H]1CN(c2cc(F)c3nc(-c4cc5cn(C)nc5cc4O)ccc3c2)C[C@H](C)N1 (single isomer, unassigned) [Compound 770]"
1000 to 10000 nM,100 to 1000 nM,"Cc1cn2nc(-c3ccc4cc(N5C[C@H](C)N[C@@H](C)C5)cc(F)c4n3)cc(C)c2n1 (single isomer, unassigned) [Compound 799]"
100 to 1000 nM,< 100 nM,"Cc1c(O)c(-c2ccc3cc(N4C[C@H](C)N[C@@H](C)C4)cc(F)c3n2)cc2cn(C)nc12 (single isomer, unassigned) [Compound 800, 2,2,2-trifluoroacetate]"
> 10000 nM,< 100 nM,"Cc1nc(-c2cc3cn(C)nc3c(C)c2O)nc2ccc(N3C[C@H](C)N[C@@H](C)C3)cc12 (single isomer, unassigned) [Compound 807]"
1000 to 10000 nM,100 to 1000 nM,"C[C@@H]1CN(c2cc(F)c3nc(-c4cc(F)c5nn(C)cc5c4)ccc3c2)C[C@H](C)N1 [Compound 758, 6-[(3R,5S)-3,5-dimethylpiperazin-1-yl]-8-fluoro-2-(7-fluoro-2-methylindazol-5-yl)quinoline]"
1000 to 10000 nM,< 100 nM,"C[C@@H]1CN(c2cc(F)c3nc(-c4cc5cn(C)nc5c(F)c4O)ccc3c2)C[C@H](C)N1 [Compound 763, 5-{6-[(3R,5S)-3,5-dimethylpiperazin-1-yl]-8-fluoroquinolin-2-yl}-7-fluoro-2-methylindazol-6-ol hydrochloride]"
1000 to 10000 nM,< 100 nM,"C[C@@H]1CN(c2cc(F)c3nc(-c4cc5cn(C)nc5cc4O)ccc3c2)C[C@H](C)N1 [Compound 768, 5-{6-[(3R,5S)-3,5-dimethylpiperazin-1-yl]-8-fluoroquinolin-2-yl}-2-methylindazol-6-ol hydrochloride]"
100 to 1000 nM,< 100 nM,"Cc1c(O)c(-c2ccc3cc(N4CCNC5(CC5)C4)cc(F)c3n2)cc2cn(C)nc12 [Compound 805, 5-(6-{4,7-diazaspiro[2.5]octan-7-yl}-8-fluoroquinolin-2-yl)-2,7-dimethylindazol-6-ol]"
